The record followed here is ChEMBL document CHEMBL1147492, “Small molecule biaryl FSH receptor agonists. Part 1: Lead discovery via encoded combinatorial synthesis” (Bioorg Med Chem Lett, 2004).

pEC50: −log10 of the molar value.

For this test, the target named is T1, Follicle-stimulating hormone receptor (Homo sapiens, UniProt P23945).
T1 sequence (P23945 whole entry): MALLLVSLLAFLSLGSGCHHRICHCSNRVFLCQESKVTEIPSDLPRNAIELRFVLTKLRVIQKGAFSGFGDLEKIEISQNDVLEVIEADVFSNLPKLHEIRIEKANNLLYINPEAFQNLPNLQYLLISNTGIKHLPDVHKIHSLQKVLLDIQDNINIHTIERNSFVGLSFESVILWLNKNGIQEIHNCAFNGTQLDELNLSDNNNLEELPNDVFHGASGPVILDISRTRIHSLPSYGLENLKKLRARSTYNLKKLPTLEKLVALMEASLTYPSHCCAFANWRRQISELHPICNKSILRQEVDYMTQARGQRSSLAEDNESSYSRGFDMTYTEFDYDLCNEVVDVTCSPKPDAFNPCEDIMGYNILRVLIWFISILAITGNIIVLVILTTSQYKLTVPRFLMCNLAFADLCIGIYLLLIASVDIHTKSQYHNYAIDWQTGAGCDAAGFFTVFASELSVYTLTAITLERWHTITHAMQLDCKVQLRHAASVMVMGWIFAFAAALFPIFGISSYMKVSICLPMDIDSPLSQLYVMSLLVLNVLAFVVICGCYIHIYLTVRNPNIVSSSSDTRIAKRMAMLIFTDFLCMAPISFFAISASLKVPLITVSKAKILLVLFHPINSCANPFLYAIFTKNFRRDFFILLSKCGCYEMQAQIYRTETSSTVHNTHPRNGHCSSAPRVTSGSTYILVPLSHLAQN
Put plainly: Agonistic activity against Follicle stimulating hormone receptor expressed in chinese hamster ovary cells(CHO). The test is classed as functional, cell-based.
As a reminder, the pEC50 is the EC50 on a negative log10 scale, so that one unit is a factor of ten. As for `CCCCCCNC(=O)CN1CC(=O)N(C)[C@@H](Cc2ccc(-c3cc(OC)c(OC)c(OC)c3)cc2)C1=O`, the pEC50 was 5.52.
In turn, `CCCCCCNC(=O)CN1C(=O)C(Cc2ccc(-c3ccc(CN(CCCC)C(=O)NC)cc3)cc2)N(C)C1=O` (stereo not given) showed a negative logarithm of the EC50 (pEC50) of 5.60.
In turn, `CCCCCNC(=O)CN1CC(=O)N(C)[C@@H](Cc2ccc(-c3cccc(CN(CCCC)C(=O)NC)c3)cc2)C1=O` gave a negative logarithm of the EC50 (pEC50) of 5.77.
The compound `CCCCOC(=O)N(CC(=O)NCC1CC1)Cc1ccc(-c2ccccc2CN(CCCC)C(C)=O)cc1` showed a negative logarithm of the EC50 (pEC50) of 5.41.
Regarding `CCCCN(Cc1cccc(-c2ccc(C(=O)NC3CCCCN(CC(=O)NCCc4ccc(Cl)cc4)C3=O)cc2)c1)C(=O)NC` (stereo not given), the pEC50 was 6.59.
